A word on the EC50: it is the concentration at which the effect is half-maximal. Low values mean greater potency, high ones weaker potency. The term IC50 denotes the concentration that gives 50% inhibition. A higher IC50 goes with weaker potency.

Each structure is given as a SMILES string. Some results are limits rather than exact numbers.

The results in this text go back to patent US20250129070A1, “BIFUNCTIONAL ANDROGEN RECEPTOR COMPOUNDS” (priority 2023, published 2025).

The first test has as its system AR / CBP ternary complex. As to the kind of experiment: Ternary complex formation assay (sandwich ELISA, AR capture / CBP detection) in VCaP cell lysates. The class given is cell-based. As to conditions: 1.5 hours treatment, sandwich ELISA (AR capture, CBP or p300 detection). The method, boiled down: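 VCaP cells (50K/well, 5% charcoal-stripped FBS, ≥3 days) treated with bifunctional compound for 1.5 h, then lysed 30 min at 4 °C. AR captured on anti-AR (AR 441) plates; bound CBP or p300 detected by rabbit mAb plus HRP secondary. QuantaRed chemifluorescence read at ex 570/em 585, immediately and at 5 and 15 min.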
(An ELISA detects its analyte on a solid surface through an enzyme-linked reagent.)
On to `COc1cc(OC2C(C)(C)C(NC(=O)c3cnc(N4CC5(CCC(N6CCC(n7nc(N8CCCc9cc(-c%10cnn(C)c%10)c(C)cc98)c8c7CCN(C(C)=O)C8)CC6)CC5)C4)nc3)C2(C)C)ccc1C#N` (centres unmarked) [Compound 469, 2-[7-[4-[5-acetyl-3-[7-methyl-6-(1-methylpyrazol-4-yl)-3,4-dihydro-2H-quinolin-1-yl]-6,7-dihydro-4H-pyrazolo[4,3-c]pyridin-1-yl]-1-piperidyl]-2-azaspiro [3.5]nonan-2-yl]-N-[3-(4-cyano-3-methoxy-phenoxy)-2,2,4,4-tetramethyl-cyclobutyl]pyrimidine-5-carboxamide], for which the concentration for a half-maximal effect (EC50) was less than 1 nM.

As to `COc1cc(OC2C(C)(C)C(NC(=O)c3ccc(N4CCC(C5CCC(n6nc(N7CCCc8cc(-c9cnn(C)c9)c(C(F)F)cc87)c7c6CCN(C(C)=O)C7)CC5)CC4)cc3)C2(C)C)ccc1C#N` (centres unmarked) [Compound 259, 4-[4-[4-[5-acetyl-3-[7-(difluoromethyl)-6-(1-methylpyrazol-4-yl)-3,4-dihydro-2H-quinolin-1-yl]-6,7-dihydro-4H-pyrazolo[4,3-c]pyridin-1-yl]cyclohexyl]-1-piperidyl]-N-[3-(4-cyano-3-methoxy-phenoxy)-2,2,4,4-tetramethyl-cyclobutyl]benzamide], the EC50 fell in the range of 1 to 10 nM.

Take `CC(=O)N1CCc2c(c(N3CCCc4cc(-c5cnn(C)c5)c(C(F)F)cc43)nn2C2CCC3(CCCN(C4CN(c5ncc(C(=O)NC6C(C)(C)C(Oc7ccc(C#N)c(Cl)c7)C6(C)C)cn5)C4)C3)CC2)C1` (centres unmarked) [Compound 414, 2-[3-[9-[5-acetyl-3-[7-(difluoromethyl)-6-(1-methylpyrazol-4-yl)-3,4-dihydro-2H-quinolin-1-yl]-6,7-dihydro-4H-pyrazolo[4,3-c]pyridin-1-yl]-2-azaspiro[5.5]undecan-2-yl]azetidin-1-yl]-N-[3-(3-chloro-4-cyano-phenoxy)-2,2,4,4-tetramethyl-cyclobutyl]pyrimidine-5-carboxamide]: the EC50 is less than 1 nM.

`CC(=O)N1CCc2c(c(N3CCCc4cc(-c5cnn(C)c5)c(C(F)F)cc43)nn2C2CCN(C(=O)C3CN(c4ncc(C(=O)NC5C(C)(C)C(Oc6ccc(C#N)c(Cl)c6)C5(C)C)cn4)C3)CC2)C1` (centres unmarked) [Compound 118, 2-[3-[4-[5-acetyl-3-[7-(difluoromethyl)-6-(1-methylpyrazol-4-yl)-3,4-dihydro-2H-quinolin-1-yl]-6,7-dihydro-4H-pyrazolo[4,3-c]pyridin-1-yl]piperidine-1-carbonyl]azetidin-1-yl]-N-[3-(3-chloro-4-cyano-phenoxy)-2,2,4,4-tetramethyl-cyclobutyl]pyrimidine-5-carboxamide] displayed an EC50 of more than 100 nM.

Turning to `CC(=O)N1CCc2c(c(N3CCCc4cc(-c5cnn(C)c5)c(C(F)F)cc43)nn2C2CN(CCC3CCN(c4ncc(C(=O)NC5C(C)(C)C(Oc6ccc(C#N)c(Cl)c6)C5(C)C)cn4)CC3)C2)C1` (centres unmarked) [Compound 162, 2-[4-[2-[3-[5-acetyl-3-[7-(difluoromethyl)-6-(1-methylpyrazol-4-yl)-3,4-dihydro-2H-quinolin-1-yl]-6,7-dihydro-4H-pyrazolo[4,3-c]pyridin-1-yl]azetidin-1-yl]ethyl]-1-piperidyl]-N-[3-(3-chloro-4-cyano-phenoxy)-2,2,4,4-tetramethyl-cyclobutyl]pyrimidine-5-carboxamide], the EC50 was less than 1 nM.

`CC(=O)N1CCc2c(c(N3CCCc4cc(-c5cnn(C)c5)c(C(F)F)cc43)nn2C2CC3(C2)CN(CC2CN(c4ccc(C(=O)NC5C(C)(C)C(Oc6ccc(C#N)c(Cl)c6)C5(C)C)nn4)C2)C3)C1` (centres unmarked) [Compound 212, 6-[3-[[6-[5-acetyl-3-[7-(difluoromethyl)-6-(1-methylpyrazol-4-yl)-3,4-dihydro-2H-quinolin-1-yl]-6,7-dihydro-4H-pyrazolo[4,3-c]pyridin-1-yl]-2-azaspiro [3.3]heptan-2-yl]methyl]azetidin-1-yl]-N-[3-(3-chloro-4-cyano-phenoxy)-2,2,4,4-tetramethyl-cyclobutyl]pyridazine-3-carboxamide]: the concentration giving a half-maximal response (EC50) lay within 10 to 100 nM.

`COc1cc(OC2C(C)(C)C(NC(=O)c3ccc(N4CC(C)C(CN5CCC(n6nc(N7CCCc8cc(C#N)c(C)cc87)c7c6CCN(C(C)=O)C7)CC5)C(C)C4)cc3)C2(C)C)ccc1C#N` (centres unmarked) [Compound 457, 4-[4-[[4-[5-acetyl-3-(6-cyano-7-methyl-3,4-dihydro-2H-quinolin-1-yl)-6,7-dihydro-4H-pyrazolo[4,3-c]pyridin-1-yl]-1-piperidyl]methyl]-3,5-dimethyl-1-piperidyl]-N-[3-(4-cyano-3-methoxy-phenoxy)-2,2,4,4-tetramethyl-cyclobutyl]benzamide] came in with a 50% effective concentration (EC50) of less than 1 nM.

In turn, `CC(=O)N1CCc2c(c(N3CCCc4cc(-c5cnn(C)c5)c(C(F)F)cc43)nn2C2CCN(C(C)C3CCN(c4ncc(C(=O)NC5C(C)(C)C(Oc6ccc(C#N)c(Cl)c6)C5(C)C)cn4)CC3)CC2)C1` (centres unmarked) [Compound 113, 2-[4-[1-[4-[5-acetyl-3-[7-(difluoromethyl)-6-(1-methylpyrazol-4-yl)-3,4-dihydro-2H-quinolin-1-yl]-6,7-dihydro-4H-pyrazolo[4,3-c]pyridin-1-yl]-1-piperidyl]ethyl]-1-piperidyl]-N-[3-(3-chloro-4-cyano-phenoxy)-2,2,4,4-tetramethyl-cyclobutyl]pyrimidine-5-carboxamide] returned an EC50 of less than 1 nM.

In turn, `CC(=O)N1CCc2c(c(N3CCCc4cc(-c5cnn(C)c5)c(C(F)F)cc43)nn2C2CCN(C3CC4(CCN(c5ncc(C(=O)NC6C(C)(C)C(Oc7ccc(C#N)c(Cl)c7)C6(C)C)cn5)C4)C3)CC2)C1` (centres unmarked) [Compound 346, 2-[2-[4-[5-acetyl-3-[7-(difluoromethyl)-6-(1-methylpyrazol-4-yl)-3,4-dihydro-2H-quinolin-1-yl]-6,7-dihydro-4H-pyrazolo[4,3-c]pyridin-1-yl]-1-piperidyl]-6-azaspiro [3.4]octan-6-yl]-N-[3-(3-chloro-4-cyano-phenoxy)-2,2,4,4-tetramethyl-cyclobutyl]pyrimidine-5-carboxamide] had an EC50 of less than 1 nM.

In the case of `CC(=O)N1CCc2c(c(N3CCCc4cc(-c5cnco5)c(C(F)F)cc43)nn2C2CCN(CC3C(C)CN(c4ncc(C(=O)NC5C(C)(C)C(Oc6ccc(C#N)c(Cl)c6)C5(C)C)cn4)CC3C)CC2)C1` (centres unmarked) [Compound 424, 2-[4-[[4-[5-acetyl-3-[7-(difluoromethyl)-6-oxazol-5-yl-3,4-dihydro-2H-quinolin-1-yl]-6,7-dihydro-4H-pyrazolo[4,3-c]pyridin-1-yl]-1-piperidyl]methyl]-3,5-dimethyl-1-piperidyl]-N-[3-(3-chloro-4-cyano-phenoxy)-2,2,4,4-tetramethyl-cyclobutyl]pyrimidine-5-carboxamide], the 50% effective concentration (EC50) is less than 1 nM.

`CC(=O)N1CCc2c(c(-c3cccc4cc(-c5ccc(COCC6CCN(c7ncc(C(=O)NC8C(C)(C)C(Oc9ccc(C#N)c(Cl)c9)C8(C)C)cn7)CC6)nc5)ncc34)nn2C2CCOCC2)C1` (centres unmarked) [Compound 143, 2-[4-[[5-[8-(5-acetyl-1-tetrahydropyran-4-yl-6,7-dihydro-4H-pyrazolo[4,3-c]pyridin-3-yl)-3-isoquinolyl]-2-pyridyl]methoxymethyl]-1-piperidyl]-N-[3-(3-chloro-4-cyano-phenoxy)-2,2,4,4-tetramethyl-cyclobutyl]pyrimidine-5-carboxamide] displayed a half-maximal effective concentration (EC50) of less than 1 nM.

`COc1cc(OC2C(C)(C)C(NC(=O)c3ccc(N4CCC(N(C)C5CCC(n6nc(N7CCCc8cc(-c9cnn(C)c9)c(C(F)F)cc87)c7c6CCN(C(C)=O)C7)CC5)CC4)cc3)C2(C)C)ccc1C#N` (centres unmarked) [Compound 280, 4-[4-[[4-[5-acetyl-3-[7-(difluoromethyl)-6-(1-methylpyrazol-4-yl)-3,4-dihydro-2H-quinolin-1-yl]-6,7-dihydro-4H-pyrazolo[4,3-c]pyridin-1-yl]cyclohexyl]-methyl-amino]-1-piperidyl]-N-[3-(4-cyano-3-methoxy-phenoxy)-2,2,4,4-tetramethyl-cyclobutyl]benzamide] had a 50% effective concentration (EC50) of less than 1 nM.

Another test concerns VCaP cells. As to the kind of experiment: VCaP growth inhibition assay. The class given is cell-based. Conditions: 30 pM R1881, 9 days, CTG. On the procedure: VCaP cells (ATCC Cat #CRL-2876) are plated at 1×10^4 cells per well of a white plastic 96-well cluster plate (Thermo Scientific Nunc Cat #165306) in 100 uL phenol red-free DMEM (Gibco Cat #21063-029) media with 5% CSS (Omega Scientific Cat #FB-04). Cluster plates are returned to the incubator (37*C/5% CO2) for 72 hours prior to treatment. Just prior to treatment, 100 μL of phenol red-free DMEM/5% CSS and […] R1881 (Sigma Cat #R0908-10 mg) was added to each well of the cluster plates (Final R1881 concentration=30 pM). Compounds (200×) were added to each well in a volume of 1 uL, with serial dilutions (1:5) from 20 uM to 2 pM (final concentrations in well are 100 nM to 10 fM). Cluster plates are returned to the incubator for 9 days.
After the 9-day treatment period, media was removed from the cluster plates by inversion and 100 uL room temperature CTG reagent (Promega Cat #G7573) is added to each well. The cluster plates are placed on a shaker and incubated at room temperature for 20 minutes. Following this shaking/incubation, cluster plates are read on a luminometer (BMG ClarioStar). IC50 values are obtained by graphing the RLU data vs. compound concentration with nonlinear regression 4-parameter logistic curves (GraphPad Prism).
`CC(=O)N1CCc2c(c(Nc3ccc(-c4cnn(C)c4)cc3F)nn2C2CN(CCN3CCN(c4ncc(C(=O)NC5C(C)(C)C(Oc6ccc(C#N)c(Cl)c6)C5(C)C)cn4)CC3)C2)C1` (centres unmarked) [Compound 164, 2-[4-[2-[3-[5-acetyl-3-[2-fluoro-4-(1-methylpyrazol-4-yl)anilino]-6,7-dihydro-4H-pyrazolo[4,3-c]pyridin-1-yl]azetidin-1-yl]ethyl]piperazin-1-yl]-N-[3-(3-chloro-4-cyano-phenoxy)-2,2,4,4-tetramethyl-cyclobutyl]pyrimidine-5-carboxamide] displayed a concentration for half-maximal inhibition (IC50) not above 0.1 nM.

On to `COc1cc(OC2C(C)(C)C(NC(=O)c3ccc(N4CCC5(CC4)CCN(c4ccc(-c6cc7cccc(-c8nn(C9CCOCC9)c9c8CN(C(C)=O)CC9)c7cn6)cn4)CC5)cc3)C2(C)C)ccc1C#N` (centres unmarked) [Compound 266, 4-[3-[5-[8-(5-acetyl-1-tetrahydropyran-4-yl-6,7-dihydro-4H-pyrazolo[4,3-c]pyridin-3-yl)-3-isoquinolyl]-2-pyridyl]-3,9-diazaspiro[5.5]undecan-9-yl]-N-[3-(4-cyano-3-methoxy-phenoxy)-2,2,4,4-tetramethyl-cyclobutyl]benzamide], for which the 50% inhibitory concentration (IC50) was in the range of 0.1 to 1 nM.
